One series has as its target IMP-1 (Serratia marcescens, UniProt P52699). Description: biochemical. In kind it is biochemical. To be noted: fluorescence assay, CCF2-FA substrate, 2 pM enzyme, 2 hours at 25° C.; read-out: IMP-1 IC50. In a few lines:
(§1)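 IC50 values derive from 4-parameter fits of percent inhibition against inhibitor concentration on semi-log axes. Activity was monitored by fluorescence with the CCF2-FA substrate after a 2-hour, 25° C incubation of compound, enzyme and substrate.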

The target of the next series is NDM-1 (Klebsiella pneumoniae, UniProt C7C422). The series can be described thus: biochemical. The class given is biochemical. The settings on record: fluorescence assay, CCF2-FA substrate, 1 pM enzyme, 2 hours at 25° C.; read-out: NDM-1 IC50. An outline of the steps:
as §1

The target in the next series is VIM-1 (Pseudomonas aeruginosa (strain ATCC 15692 / DSM 22644 / CIP 104116 / JCM 14847 / LMG 12228 / 1C / PRS 101 / PAO1), UniProt A0A0F7KYQ8). The series can be described thus: biochemical. To be noted: CCF2-FA substrate, 30 pM enzyme, 2 hours at 25° C. In a few lines: as §1
Series [1] concerns Escherichia coli expressing NDM-1 (CLB30005, CLB30016). The class given is cell-based. The settings on record: with imipenem 1 μg/ml; for Escherichia coli expressing NDM-1 (CLB30016) MITC95: 95% inhibition of bacterial growth; for Escherichia coli MITC95: NDM-1 strain, 95% inhibition of growth. In a few lines: (§2)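 Clinical isolates (E. coli NDM-1, S. marcescens IMP-1, K. pneumoniae VIM-1) were diluted 1:100 from saline suspension into 1.1×CAMHB and exposed to test compound with imipenem at 1 μg/ml. Plates were incubated at 35° C for 22 hours to 24 hours, and growth was read by absorbance.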

Series [2] has as its system Klebsiella pneumoniae expressing VIM-1 (IHMA599644). In kind it is cell-based. The settings on record: for Klebsiella pneumoniae expressing VIM-1 (IHMA599644) MITC95: with imipenem 1 μg/ml, 95% inhibition of bacterial growth; for Klebsiella pneumoniae MITC95: VIM-1 strain IHMA599644, with imipenem 1 μg/ml, 95% inhibition of growth. An outline of the steps: as §2
In series [3] the test system is Serratia marcescens expressing IMP-1 (CL5741). The class given is cell-based. To be noted: for Serratia marcescens expressing IMP-1 (CL5741) MITC95: with imipenem 1 μg/ml, 95% inhibition of bacterial growth; for Serratia marcescens MITC95: IMP-1 strain CL5741, with imipenem 1 μg/ml, 95% inhibition of growth. An outline of the steps:
as §2

For series [4], the system named is Pseudomonas aeruginosa efflux+ (MB9798), IMP-1. In kind it is cell-based. To be noted: concentration restoring susceptibility to imipenem at 2 μg/mL in the presence of a class A, C, D serine β-lactamase inhibitor closely related to relebactam. An outline of the steps: (§3)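 Microbroth MIC tests in PAO1-background strains with fixed imipenem and/or ceftazidime, usually at the CLSI breakpoint, plus fixed class A/C β-lactamase inhibitor against AmpC. MBL inhibitor titrated; concentration restoring susceptibility recorded and compared as fold difference between efflux+ MB9798 and efflux− MB9799.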

Series [5] has as its system Pseudomonas aeruginosa efflux− (MB9799), IMP-1. In kind it is cell-based. The settings on record: concentration restoring susceptibility to imipenem at 2 μg/mL in the presence of a class A, C, D serine β-lactamase inhibitor closely related to relebactam. An outline of the steps: as §3
For series [6], the system named is Pseudomonas aeruginosa MB9798 vs MB9799. To be noted: ratio MITC95 PA_9798/MITC95 PA_9799. In a few lines:
as §3

The mark [7] stands for this setting: fluorescence assay, read-out: VIM-1 IC50.

Like-named read-outs stand apart in the source and are kept apart here.

NDM-1, sequence (C7C422 whole entry, looked up, species assumed): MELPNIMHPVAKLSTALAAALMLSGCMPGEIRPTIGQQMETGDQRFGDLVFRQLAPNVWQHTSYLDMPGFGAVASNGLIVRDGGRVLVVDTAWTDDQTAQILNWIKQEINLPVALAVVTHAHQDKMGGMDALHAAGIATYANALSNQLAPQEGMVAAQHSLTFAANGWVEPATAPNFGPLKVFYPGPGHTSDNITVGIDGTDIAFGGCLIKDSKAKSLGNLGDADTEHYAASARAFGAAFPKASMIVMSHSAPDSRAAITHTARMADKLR
IMP-1, sequence (P52699 whole entry, looked up, species assumed): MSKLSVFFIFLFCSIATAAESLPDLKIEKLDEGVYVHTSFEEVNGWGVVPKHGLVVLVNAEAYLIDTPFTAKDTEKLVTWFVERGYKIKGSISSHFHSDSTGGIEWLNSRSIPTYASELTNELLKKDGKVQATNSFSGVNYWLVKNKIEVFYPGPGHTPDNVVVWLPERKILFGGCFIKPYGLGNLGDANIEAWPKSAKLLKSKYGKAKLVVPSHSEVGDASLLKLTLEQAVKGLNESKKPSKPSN

Usually IC50 stands for the concentration at which inhibition is half-maximal. Regarding `NC[C@H](O)CNS(=O)(=O)c1ccc(-c2ccncc2N)c(-c2nn[nH]n2)c1S(N)(=O)=O` [Example 222, (S)—N1-(3-amino-2-hydroxypropyl)-4-(3-aminopyridin-4-yl)-3-(2H-tetrazol-5-yl)benzene-1,2-disulfonamide], the IC50 was determined as 1.19 nM on IMP-1, 0.311 nM at NDM-1 and 0.445 nM at VIM-1 (setting [7]). In series [1], the “Escherichia coli expressing NDM-1 (CLB30016) MITC95” value was determined as 0.3906 µM. Also, in [2], the “Klebsiella pneumoniae expressing VIM-1 (IHMA599644) MITC95” value worked out at 3.125 µM. In addition, the “Serratia marcescens expressing IMP-1 (CL5741) MITC95” value in [3] amounted to 1.563 µM. In addition, the “P. aeruginosa expressing IMP-1, efflux + (MB9798) MITC95” value in series [4] came to 1.563 µM. In addition, the “P. aeruginosa expressing IMP-1, efflux − (MB9799) MITC95” value in series [5] came out at 1.563 µM. In series [6], the Efflux ratio was 1.00.
Turning to `CN(C[C@@H]1CCCN1)S(=O)(=O)c1ccc(-c2cccc3sc(N)nc23)c(-c2nnn[nH]2)c1S(N)(=O)=O.O=CO` [Example 121, (S)-2-((4-(2-aminobenzo[d]thiazol-4-yl)-N-methyl-2-sulfamoyl-3-(1H-tetrazol-5-yl)phenylsulfonamido)methyl)pyrrolidin-1-ium formate], the IC50 turned out to be 2.84 nM on IMP-1, 1.42 nM on NDM-1 and 7.08 nM at VIM-1 (setting [7]). Also, in series [1], the “Escherichia coli expressing NDM-1 (CLB30016) MITC95” value amounted to 6.25 µM. The “Klebsiella pneumoniae expressing VIM-1 (IHMA599644) MITC95” value in [2] worked out at 12.5 µM. In series [3], the “Serratia marcescens expressing IMP-1 (CL5741) MITC95” value was 3.125 µM. Besides, the “P. aeruginosa expressing IMP-1, efflux + (MB9798) MITC95” value in [4] came to 12.5 µM. Also, in series [5], the “P. aeruginosa expressing IMP-1, efflux − (MB9799) MITC95” value worked out at 3.125 µM. Moreover, the Efflux ratio in series [6] turned out to be 4.00.
Consider `NCCNS(=O)(=O)c1ccc(-c2cccc(NC[C@H](O)CN)c2)c(-c2nn[nH]n2)c1S(N)(=O)=O` [Example 351, (R)-3′-((3-amino-2-hydroxypropyl)amino)-N4-(2-aminoethyl)-2-(2H-tetrazol-5-yl)-[1,1′-biphenyl]-3,4-disulfonamide], for which the 50% inhibitory concentration (IC50) was 3.55 nM on IMP-1; 1.36 nM at NDM-1; 0.453 nM at VIM-1 (VIM-1 IC50, fluorescence assay). The “Escherichia coli MITC95” value in series [1] was 0.7813 µM. For the same compound, the “Klebsiella pneumoniae MITC95” value in series [2] was determined as 1.563 µM. In addition, the “Serratia marcescens MITC95” value in series [3] stood at 1.563 µM. Moreover, the “P. aeruginosa expressing IMP-1, efflux + (MB9798) MITC95” value in series [4] turned out to be 1.563 µM. Besides, the “P. aeruginosa expressing IMP-1, efflux − (MB9799) MITC95” value in series [5] was 0.7813 µM. Besides, the Efflux ratio in series [6] came to 2.00.
With `Nc1ccc(-c2ccc(S(=O)(=O)NC[C@H](N)CO)c(S(N)(=O)=O)c2-c2nn[nH]n2)cn1` [Example 297, (S)—N^1-(2-amino-3-hydroxypropyl)-4-(6-aminopyridin-3-yl)-3-(2H -tetrazol-5-yl) benzene-1,2-disulfonamide], the IC50 on IMP-1 is 0.569 nM; on NDM-1, 0.331 nM; at VIM-1 (setting [7]) it was 0.423 nM. Further, the “Escherichia coli MITC95” value in [1] was 0.3906 µM. Further, the “Klebsiella pneumoniae MITC95” value in series [2] came to 1.563 µM. Besides, the “Serratia marcescens MITC95” value in series [3] was found to be 0.7813 µM. Moreover, the “P. aeruginosa expressing IMP-1, efflux + (MB9798) MITC95” value in [4] amounted to 0.7813 µM. The “P. aeruginosa expressing IMP-1, efflux − (MB9799) MITC95” value in [5] was found to be 0.7813 µM. Also, the Efflux ratio in [6] was 1.00.
As for `Cc1ccc(-c2ccc(S(=O)(=O)NCCN)c(S(N)(=O)=O)c2-c2nn[nH]n2)c2nc(N)[nH]c12` [Example 329, 4-(2-Amino-7-methyl-1H-benzo[d]imidazol-4-yl)-N1-(2-aminoethyl)-3-(2H-tetrazol-5-yl)benzene-1,2-disulfonamide], the IC50 on IMP-1 came out at 0.128 nM; on NDM-1 it was 0.0153 nM; on VIM-1 (setting [7]), 0.043 nM. In addition, in series [1], the “Escherichia coli MITC95” value came to 1.563 µM. Moreover, in series [2], the “Klebsiella pneumoniae MITC95” value was found to be 1.563 µM. The “Serratia marcescens MITC95” value in series [3] stood at 1.563 µM. Moreover, the “P. aeruginosa expressing IMP-1, efflux + (MB9798) MITC95” value in series [4] was determined as 1.563 µM. Also, in series [5], the “P. aeruginosa expressing IMP-1, efflux − (MB9799) MITC95” value amounted to 0.7813 µM. For the same compound, the Efflux ratio in [6] was found to be 2.00.
`C[N+]1(C)CC[C@H](NS(=O)(=O)c2ccc(-c3cccc4[nH]c(N)nc34)c(-c3nn[n-]n3)c2S(N)(=O)=O)C1` [Example 166, (S)-5-(6-(2-amino-1H-benzo[d]imidazol-4-yl)-3-(N-(1,1-dimethylpyrrolidin-1-ium-3-yl)sulfamoyl)-2-sulfamoylphenyl)tetrazol-2-ide]: the IC50 at IMP-1 turned out to be 0.82 nM; at NDM-1, 0.0581 nM; at VIM-1 (VIM-1 IC50, fluorescence assay) it was […]. Also, in series [1], the “Escherichia coli expressing NDM-1 (CLB30016) MITC95” value stood at 0.7813 µM. Besides, the “Klebsiella pneumoniae expressing VIM-1 (IHMA599644) MITC95” value in series [2] worked out at 3.125 µM. For the same compound, the “Serratia marcescens expressing IMP-1 (CL5741) MITC95” value in series [3] was 1.563 µM. Also, in [4], the “P. aeruginosa expressing IMP-1, efflux + (MB9798) MITC95” value came out at 1.563 µM. For the same compound, the “P. aeruginosa expressing IMP-1, efflux − (MB9799) MITC95” value in series [5] was determined as 1.563 µM. For the same compound, the Efflux ratio in series [6] stood at […].
Consider `NCCNS(=O)(=O)c1ccc(-c2cnc3cc[nH]c3c2)c(-c2nn[nH]n2)c1S(N)(=O)=O` [Example 359, N1-(2-aminoethyl)-4-(1H-pyrrolo[3,2-b]pyridin-6-yl)-3-(2H-tetrazol-5-yl)benzene-1,2-disulfonamide], for which the IC50 on IMP-1 was 1.61 nM; at NDM-1 it was 0.154 nM; on VIM-1 (setting [7]), 0.254 nM. Besides, the “Escherichia coli MITC95” value in series [1] worked out at 0.09766 µM. The “Klebsiella pneumoniae MITC95” value in series [2] worked out at 1.563 µM. For the same compound, the “Serratia marcescens MITC95” value in series [3] came to 0.3906 µM. Besides, in [4], the “P. aeruginosa expressing IMP-1, efflux + (MB9798) MITC95” value came out at 1.563 µM. The “P. aeruginosa expressing IMP-1, efflux − (MB9799) MITC95” value in series [5] came out at 0.7813 µM. The Efflux ratio in series [6] is 2.00.
As to `NCCCNS(=O)(=O)c1ccc(-c2cccc3sc(N)nc23)c(-c2nnn[nH]2)c1S(N)(=O)=O.O=C(O)C(F)(F)F` [Example 90, 3-(4-(2-aminobenzo[d]thiazol-4-yl)-2-sulfamoyl-3-(1H-tetrazol-5-yl)phenylsulfonamido)propan-1-aminium 2,2,2-trifluoroacetate], the values for the IC50 at IMP-1, at NDM-1 and on VIM-1 (setting [7]) were 0.411 nM, 0.0795 nM and 0.27 nM, respectively. Further, the “Escherichia coli expressing NDM-1 (CLB30016) MITC95” value in [1] came out at 3.125 µM. In addition, in series [2], the “Klebsiella pneumoniae expressing VIM-1 (IHMA599644) MITC95” value turned out to be 3.125 µM. Further, in [3], the “Serratia marcescens expressing IMP-1 (CL5741) MITC95” value is 1.563 µM. The “P. aeruginosa expressing IMP-1, efflux + (MB9798) MITC95” value in [4] is 0.7813 µM. Also, in series [5], the “P. aeruginosa expressing IMP-1, efflux − (MB9799) MITC95” value was found to be 1.563 µM. Besides, the Efflux ratio in [6] was 0.50.
Regarding `CN1CCC(N(C)S(=O)(=O)c2ccc(-c3cccc4sc(N)nc34)c(-c3nnn[nH]3)c2S(N)(=O)=O)C1` (stereo not drawn) [Example 54, 4-(2-amino-1,3-benzothiazol-4-yl)-N1-methyl-N1-(1-methylpyrrolidin-3-yl)-3-(1H-tetrazol-5-yl)benzene-1,2-disulfonamide], the IC50 at IMP-1 amounted to 1.93 nM; on NDM-1, 0.19 nM; on VIM-1 (setting [7]) it was 3.64 nM. In series [1], the “Escherichia coli expressing NDM-1 (CLB30016) MITC95” value came to 6.25 µM. Also, the “Klebsiella pneumoniae expressing VIM-1 (IHMA599644) MITC95” value in series [2] turned out to be 6.25 µM. Moreover, the “Serratia marcescens expressing IMP-1 (CL5741) MITC95” value in series [3] stood at 3.125 µM. The “P. aeruginosa expressing IMP-1, efflux + (MB9798) MITC95” value in [4] was 6.25 µM. For the same compound, in series [5], the “P. aeruginosa expressing IMP-1, efflux − (MB9799) MITC95” value was 3.125 µM. For the same compound, in [6], the Efflux ratio was 2.00.
